Measurements reported in patent US7288573B2, “Method of repelling insects” (priority 2001, dated 2007).
Where “and” joins values, the source holds several entries; their conditions need not be identical. Equal values may be shown once. Entries after “also recorded” stand apart in the source; their conditions may differ.

What was measured:
Culex spp. [1] = assay: Mosquito repellency of 2-undecanone, treated arm in cage (Example 5); assay type: in vivo; settings: 20% on arm; for No. landings: single replicates
Text: Two mosquitoes cages were constructed using wood framing and fine mesh wire screen. The dimensions of each cage were 59 cm high×55 cm wide×59 cm deep. A hinged access door was installed at the front of each chamber for insertion of the water-filled containers filled with mosquito pupae. Also present at the front of each chamber was a 9 cm diameter plastic tube (i.d.) for insertion of the arm of the investigator. The arm insertion tube was sealed with a rubber stopper when not in use.
Mosquitoes (Culex spp.) were obtained (as pupae) from Carolina Biological Supply Co., Burlington, N.C., USA. Following their arrival, the mosquitoes were divided into approximately equal numbers in two water-filled containers and placed in the two cages described above. Some of the mosquitoes had hatched upon arrival.
Testing was done with 2-undecanone for repellent activity by treating one arm of the investigator with approximately 1 ml of the test solution. Following several minutes for solvent evaporation, the treated arm was inserted through the insertion tube for 5 minutes. The other arm was treated with ethanol (control) or a different concentration of 2-undecanone, and inserted into the insertion tube of the adjacent chamber. Next, the behavior of the mosquitoes in response to the presence of the investigator's arms was noted. Mosquito behavior was recorded as 1) landing or attempting to land on the investigator's arm, versus 2) dispersal away from the treated arm towards the opposite ends of the cage. The approximate number of mosquitoes present at the beginning of the observations was noted. The observations were repeated (without re-treatment of the investigator's hand and arm) after 3 hours and again after 6 hours. Treatments were alternated between the different cages. Each observation was repeated 3 times. Tests were done with 20%, 5%, 2%, 0.5% 2-undecanone, 20% DEET, and the ethanol control.
With one exception, none of the mosquitoes succeeded in biting, although mosquitoes that landed on the investigator's arm were dislodged by flicking the arm or hand. In most cases, any physical movement of the hand or arm will induce the mosquito to leave. Thus, few if any bites were expected. Landings on the arm were considered as evidence of attraction, with intent to bite.

Culex spp. [2] = assay: Mosquito repellency of 2-undecanone and 2-tridecanone, treated arm in cage (Example 6); assay type: in vivo; settings: 20% concentration; for No. landings: single replicates
Text: Cages. The same two mosquitoes cages described in Example 5 were used for this example. The cages were constructed using wood framing and fine mesh wire screen. The dimensions of each cage were 59 cm high×55 cm wide by 59 cm deep. A hinged access door was installed at the front of each chamber for insertion of the water-filled containers filled with mosquito pupae. Also present at the front of each chamber was a 9 cm diameter plastic tube (i.d.) for insertion of the arm of the investigator. The arm insertion tube was sealed with a rubber stopper when not in use.
Mosquitoes and Mosquito Rearing. Mosquitoes (Culex spp.) were obtained (as pupae and larvae) from Carolina Biological Supply Co., Burlington, N.C., USA in two successive shipments, so as to provide a continuing long term supply of fresh insects. Following their arrival, the mosquitoes were divided into approximately equal numbers in multiple water-filled containers and placed in the two cages described above. The larval and pupal cultures were fed with insect rearing compound. In addition, the water was changed regularly by filtration to minimize contamination and prevent overcrowding. Continuous culturing made it possible to increase the mosquito numbers to more than 100 insects per cage.
Test Compounds and Testing Schedule. Testing was done with two compounds, 2-undecanone, and 2-tridecanone, for repellent activity by treating one arm of the investigator with approximately 1 ml of the test solution. Following several minutes for solvent evaporation, the treated arm was inserted through the insertion tube for 5 minutes. The other arm was treated with isoprbpanol (control) or a different concentration of the compound, and inserted into the insertion tube of the adjacent chamber. Next, the behavior of the mosquitoes in response to the presence of the investigator's arms was noted. Mosquito behavior was recorded as 1) landing or attempting to land on the investigator's arm, or coming to rest on the wire screen immediately adjacent to the investigator's arm or hand, versus 2) dispersal away from the treated arm towards the opposite ends of the cage. The approximate number of mosquitoes present at the beginning of the observations was noted. For treatments with 2-undecanone, observations were made initially to confirm 100% repellent activity of the compound immediately after treatment but observations were not recorded. Recording of efficacy was delayed until 6 hours after treatment, and then repeated at 12 and 24 hours post-treatment. For treatment with 2-tridecanone, the observations commenced immediately after solvent drying; then, the observations were repeated (without re-treatment of the investigator's hand and arm) after 6 hours, 12 hours and 24 hours. Treatments were alternated between the different cages. […]
2-tridecanone was obtained as a solid. To prepare this compound for testing, it was subjected to gentle heating in a 37° C. water bath to liquefy it, and aliquots of the stock were diluted volume: volume with isopropanol to 50% concentration and 20% concentration. Sufficient pure compound was retained for direct application (undiluted).
Tests were done at concentrations of 100%, 50%, and 20% for each of the two compounds, as well as 20% DEET, and the isopropanol control.
Table 3 presents the efficacy found at the different time intervals for each of the compounds at the three different concentrations and for DEET. Efficacy was calculated according to the formula: [(no. landings/no. present in control)−(no. landings/no. present in experinental) divided by (no. landings/no. present in control)]×100.

## CCN(CC)C(=O)c1cccc(C)c1 [DEET, N,N-diethyl-meta-toluamide, reference compound]
Culex spp. [1]; 0 hours after treatment
  No. landings, Mean: 0
  No. landings: 0
Culex spp. [1]; 3 hours after treatment
  No. landings, Mean: 0
  No. landings: 0
Culex spp. [1]; 6 hours after treatment
  No. landings, Mean: 0.3
  No. landings: 1 and 0 (2×)
Culex spp. [1]; observed at 0, 3 and 6 hours
  observed mosquito behavior / repellent effect (words): The effect persisted after 3 hours, but was largely lost after 6 hours
Culex spp. [2]; 0 hours
  Percent Efficacy Post-Treatment: 91.1%
Culex spp. [2]; 0 hours after treatment
  No. landings, Mean: 1.3
  Percent = [(No. landings/No. present)] × 100: 1.3%
  No. landings: 2 (2×) and 0
Culex spp. [2]; 6 hours
  Percent Efficacy Post-Treatment: 63.9%
Culex spp. [2]; 6 hours after treatment
  No. landings, Mean: 5.7
  Percent = [(No. landings/No. present)] × 100: 4.8%
  No. landings: 10 and 4 and 3
Culex spp. [2]; 12 hours
  Percent Efficacy Post-Treatment: 31.7%
Culex spp. [2]; 12 hours after treatment
  No. landings, Mean: 15.0
  Percent = [(No. landings/No. present)] × 100: 11.4%
  No. landings: 12 and 15 and 18
Culex spp. [2]; 24 hours
  Percent Efficacy Post-Treatment: 16.8%
Culex spp. [2]; 24 hours after treatment
  No. landings, Mean: 13.0
  Percent = [(No. landings/No. present)] × 100: 10.9%
  No. landings: 14 (2×) and 11
Culex spp. [2]; observed up to 24 hours post-treatment
  observed repellent / residual activity (words): strong immediate and residual activity for up to 6 hours, weak activity at 12 hours and none thereafter; also recorded: treatment, but no residual activity was observed at 12 or 24 hours post-treatment
